The results in this text go back to patent publication US9625446B2, “Method and quantification assay for determining c-kit/SCF/pAKT status” (Ventana Medical Systems, Inc., priority 2001, dated 2017).

A value given as a limit tells only on which side of the number the result lay.

This test concerns the target c-kit receptor (Homo sapiens, UniProt P10721). To be noted: MDA-MB-361 cells, SCF ligand present, three-day culture, STI-571 1 μM to 40 μM, 50 μg total protein lysate, FIG. 4.

Chain of c-kit receptor (P10721 26-976): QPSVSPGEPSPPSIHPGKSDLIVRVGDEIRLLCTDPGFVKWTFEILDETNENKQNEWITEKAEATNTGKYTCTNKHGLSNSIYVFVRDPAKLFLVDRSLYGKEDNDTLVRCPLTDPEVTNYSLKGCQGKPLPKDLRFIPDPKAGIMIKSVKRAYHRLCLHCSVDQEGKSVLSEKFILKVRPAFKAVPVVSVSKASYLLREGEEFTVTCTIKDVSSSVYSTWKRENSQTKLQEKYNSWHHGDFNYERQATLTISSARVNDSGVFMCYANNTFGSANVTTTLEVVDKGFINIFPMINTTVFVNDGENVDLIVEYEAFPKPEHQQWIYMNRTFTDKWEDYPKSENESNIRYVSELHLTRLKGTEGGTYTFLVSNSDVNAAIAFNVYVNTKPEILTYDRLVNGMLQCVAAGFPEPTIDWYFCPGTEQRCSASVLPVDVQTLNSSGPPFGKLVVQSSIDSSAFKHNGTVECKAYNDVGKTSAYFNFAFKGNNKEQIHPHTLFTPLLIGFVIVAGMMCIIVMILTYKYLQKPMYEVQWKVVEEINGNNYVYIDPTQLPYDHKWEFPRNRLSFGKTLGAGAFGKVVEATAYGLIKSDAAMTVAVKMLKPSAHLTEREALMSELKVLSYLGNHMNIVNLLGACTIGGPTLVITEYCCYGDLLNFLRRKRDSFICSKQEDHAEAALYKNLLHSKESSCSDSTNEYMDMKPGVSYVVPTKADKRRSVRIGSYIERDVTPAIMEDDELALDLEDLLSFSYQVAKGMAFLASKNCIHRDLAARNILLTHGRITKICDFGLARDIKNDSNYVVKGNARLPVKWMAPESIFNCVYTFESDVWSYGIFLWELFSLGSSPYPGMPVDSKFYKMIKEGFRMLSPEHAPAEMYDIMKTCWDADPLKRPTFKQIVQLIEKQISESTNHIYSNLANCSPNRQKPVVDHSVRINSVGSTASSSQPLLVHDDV

In the case of `Cc1ccc(NC(=O)c2ccc(CN3CCN(C)CC3)cc2)cc1Nc1nccc(-c2cccnc2)n1` [STI-571], the “STI-571 concentration at which SCF-induced c-kit activation is inhibited (no 145 kDa activated c-kit band)” value is no more than 1 µM.
